# Source: patent EP2918282A1, “Pharmaceutical composition for the treatment of virus diseases, such as flu” (OOO "CytoNIR", priority 2014, dated 2015)
# System: Grippevirus A/Vladivostok/2/09 (H1N1)
# Assay: Survival of mice infected with a lethal dose of influenza virus, peroral treatment for 5 days
# Format: in vivo, Mäuse
# Details: virus strain resistant to Oseltamyvir; 30 mg/kg
# Description: Die Wirksamkeit des Mittels wurde an einem Modell der Überlebensfähigkeit von angesteckten Versuchstieren geprüft. Die Versuchstiere wurden mit einer tödlichen Dosis des Grippevirus A/Vladivostok/2/09 (H1N1) angesteckt. Während der Forschung wurde das erfindungsgemäße Mittel 5 Tage lang peroral verabreicht.
# Als Versuchstiere wurden weiße männliche Auszucht-Mäuse mit einem Körpergewicht von 16 - 18 g aus der Aufzuchtstation Rappolovo der Russischen Akademie der medizinischen Wissenschaften verwendet. Vor der Prüfung wurden die Versuchstiere einer Quarantäne in einem Vivarium im Laufe einer Woche unterzogen. Die Versuchstiere wurden unter genormten Klima-Bedingungen mit ausgewogener Fütterung gehalten. Jede Gruppe enthielt je 30 Versuchstiere.
# Um eine versuchsmäßige Grippe-Infektion zu simulieren, wurde ein bestimmter Virusstamm eingesetzt. Die Versuchstiere wurden mit dem A/Vladivostok/2/09 (H1N1)-Virus in Mengen von 1 und 10 DL50 intranasal angesteckt.
# Die Behandlung der angesteckten Mäuse wurde 24 Stunden nach der Ansteckung begonnen. Die Präparate wurden intragastrisch mittels einer Sonde verabreicht. Bei diesen Präparaten handelte es sich um eine Lösung in einer physiologischen Kochsalzlösung. Die Dosis des Arzneimittels wurde pro ein kg des Körpergewichts des Tieres berechnet. Die Behandlung wurde im Laufe von 5 Tagen vorgenommen. […]
structure (smiles),measurement,value
"CCOC(=O)C1=C[C@@H](OC(CC)CC)[C@H](NC(C)=O)[C@@H](N)C1 [Tamiflu, Oseltamyvir]",Schutzsteigerung,keine zuverlässige Schutzsteigerung
